Target: T1, LRRK2 WT (Homo sapiens, UniProt Q5S007)
Test: In vitro kinase assay: LRRK2 autophosphorylation
Assay type: biochemical
Details: compound 16 μM; phosphorylation normalized to absence of compound; mean ± S.E.M. of three experiments

T1 sequence (Q5S007 whole entry): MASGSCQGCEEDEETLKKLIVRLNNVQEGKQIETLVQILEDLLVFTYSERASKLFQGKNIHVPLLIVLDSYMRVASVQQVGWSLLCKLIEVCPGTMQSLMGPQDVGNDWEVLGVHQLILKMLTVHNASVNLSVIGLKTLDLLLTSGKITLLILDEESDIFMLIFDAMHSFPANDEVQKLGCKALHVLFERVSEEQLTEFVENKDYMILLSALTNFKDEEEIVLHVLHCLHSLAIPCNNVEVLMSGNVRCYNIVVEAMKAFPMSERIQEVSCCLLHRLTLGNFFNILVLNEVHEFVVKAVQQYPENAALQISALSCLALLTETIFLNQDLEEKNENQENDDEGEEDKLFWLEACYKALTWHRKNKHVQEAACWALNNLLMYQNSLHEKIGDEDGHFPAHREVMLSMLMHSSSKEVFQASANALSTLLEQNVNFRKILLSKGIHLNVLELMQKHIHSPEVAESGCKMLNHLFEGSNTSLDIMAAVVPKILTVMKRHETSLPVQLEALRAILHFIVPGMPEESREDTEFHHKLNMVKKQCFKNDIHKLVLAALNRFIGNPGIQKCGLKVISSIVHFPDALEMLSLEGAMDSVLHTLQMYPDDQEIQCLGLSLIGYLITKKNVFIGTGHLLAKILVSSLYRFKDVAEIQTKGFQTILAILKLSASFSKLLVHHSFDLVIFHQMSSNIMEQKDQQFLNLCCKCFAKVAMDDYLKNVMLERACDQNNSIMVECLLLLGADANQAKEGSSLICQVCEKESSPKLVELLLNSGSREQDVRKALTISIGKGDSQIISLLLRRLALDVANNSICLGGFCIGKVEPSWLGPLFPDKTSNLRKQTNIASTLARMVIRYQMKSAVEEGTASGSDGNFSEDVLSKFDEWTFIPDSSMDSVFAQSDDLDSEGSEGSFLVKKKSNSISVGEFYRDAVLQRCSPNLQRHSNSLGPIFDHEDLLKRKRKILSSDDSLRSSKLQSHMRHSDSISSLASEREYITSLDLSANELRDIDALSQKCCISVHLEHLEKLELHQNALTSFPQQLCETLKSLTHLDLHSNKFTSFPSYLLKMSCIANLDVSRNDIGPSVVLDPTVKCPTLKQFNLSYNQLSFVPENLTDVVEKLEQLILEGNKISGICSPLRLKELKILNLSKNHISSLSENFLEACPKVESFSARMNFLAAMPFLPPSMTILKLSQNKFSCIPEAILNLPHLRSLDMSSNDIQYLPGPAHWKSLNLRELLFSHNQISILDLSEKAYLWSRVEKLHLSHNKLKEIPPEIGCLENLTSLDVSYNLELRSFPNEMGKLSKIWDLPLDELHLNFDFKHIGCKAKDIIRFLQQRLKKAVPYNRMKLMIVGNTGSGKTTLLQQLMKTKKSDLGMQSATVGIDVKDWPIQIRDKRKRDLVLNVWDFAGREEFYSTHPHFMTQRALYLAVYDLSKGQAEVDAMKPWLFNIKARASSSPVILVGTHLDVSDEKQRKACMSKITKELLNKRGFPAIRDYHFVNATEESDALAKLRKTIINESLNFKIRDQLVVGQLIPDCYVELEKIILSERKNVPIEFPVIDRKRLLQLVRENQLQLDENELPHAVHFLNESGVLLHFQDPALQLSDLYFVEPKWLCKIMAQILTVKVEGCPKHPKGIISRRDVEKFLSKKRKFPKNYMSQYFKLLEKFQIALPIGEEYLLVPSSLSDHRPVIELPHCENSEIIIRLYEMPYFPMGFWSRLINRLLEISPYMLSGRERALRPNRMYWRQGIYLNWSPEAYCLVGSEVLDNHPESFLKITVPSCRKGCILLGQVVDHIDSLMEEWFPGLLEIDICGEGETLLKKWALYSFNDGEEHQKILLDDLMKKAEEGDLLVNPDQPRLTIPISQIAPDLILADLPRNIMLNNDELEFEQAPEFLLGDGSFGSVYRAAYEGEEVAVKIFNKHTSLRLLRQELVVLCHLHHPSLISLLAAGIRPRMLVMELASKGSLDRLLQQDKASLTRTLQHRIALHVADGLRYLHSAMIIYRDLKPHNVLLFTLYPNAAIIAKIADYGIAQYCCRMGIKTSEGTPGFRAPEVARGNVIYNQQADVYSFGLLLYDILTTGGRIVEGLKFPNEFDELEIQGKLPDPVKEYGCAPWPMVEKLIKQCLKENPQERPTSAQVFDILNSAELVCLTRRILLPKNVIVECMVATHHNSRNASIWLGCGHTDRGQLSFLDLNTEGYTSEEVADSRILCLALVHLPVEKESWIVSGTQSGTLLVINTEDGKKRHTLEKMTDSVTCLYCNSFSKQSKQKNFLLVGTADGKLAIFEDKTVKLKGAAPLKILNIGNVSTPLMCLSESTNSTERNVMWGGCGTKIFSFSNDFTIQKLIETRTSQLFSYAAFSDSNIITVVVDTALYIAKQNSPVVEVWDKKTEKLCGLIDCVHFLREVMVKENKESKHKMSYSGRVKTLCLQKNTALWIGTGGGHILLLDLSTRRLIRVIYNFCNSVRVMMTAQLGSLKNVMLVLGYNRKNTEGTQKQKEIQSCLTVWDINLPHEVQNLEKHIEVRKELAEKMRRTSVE

SMILES | LRRK2 autophosphorylation Average ± SEM
CC(C)c1cc(/C=C(\C#N)C(=O)NCCCc2ccccc2)cc(C(C)C)c1O [Inhibitor 63] | 68.5 ± 1.5 % of control
Cn1cnc2c(NCc3ccccc3)nc(NCCO)nc21 [Inhibitor 46] | 72.5 ± 2.1 % of control
N#CC(C#N)=C(N)/C(C#N)=C/c1ccc2[nH]ccc2c1 [Inhibitor 27] | 73.2 ± 8.8 % of control
Oc1ccc(-c2nc(-c3ccc(F)cc3)c(-c3ccncc3)[nH]2)cc1 [Inhibitor 51] | 64.9 ± 20.9 % of control
C[C@@]12C(=O)OC(=O)[C@]1(C)[C@H]1CC[C@@H]2O1 [Inhibitor 72] | 69.1 ± 8.8 % of control
CC1(C)[C@H](C=C(Cl)Cl)[C@@H]1C(=O)O[C@H](C#N)c1cccc(Oc2ccccc2)c1 [Inhibitor 80] | 66.4 ± 17.4 % of control
N#CC(C#N)=Cc1ccc(O)cc1 [Inhibitor 83] | 68.6 ± 35.5 % of control
CC1(C)[C@H](C=C(Br)Br)[C@@H]1C(=O)O[C@H](C#N)c1cccc(Oc2ccccc2)c1 [Inhibitor 81] | 73.9 ± 2.2 % of control
Cc1cc(O)c2c(=O)c3c(O)cc(O)c4c5c(O)cc(O)c6c(=O)c7c(O)cc(C)c8c1c2c(c34)c(c78)c65 [Inhibitor 32] | 57.4 ± 30.1 % of control
O=c1cc(N2CCOCC2)oc2c(-c3ccccc3)cccc12 [Inhibitor 29] | 79.3 ± 3.6 % of control
OC[C@@H]1O[C@H](n2cnc3cc(Cl)c(Cl)cc32)[C@@H](O)[C@H]1O [Inhibitor 66] | 56.4 ± 12.9 % of control
Cc1ccc(NC(=O)c2cccc(N(C)C)c2)cc1NC(=O)c1ccc(O)cc1 [Inhibitor 53] | 89.2 ± 2.7 % of control
N#CC(C#N)=Cc1ccc([N+](=O)[O-])c(O)c1 [Inhibitor 26] | 82.3 ± 10.5 % of control
C[S+]([O-])c1ccc(-c2nc(-c3ccc(F)cc3)c(-c3ccncc3)[nH]2)cc1 (stereo not drawn) [Inhibitor 3] | 75.1 ± 7.8 % of control
CC(C)(C)n1nc(-c2ccc(Cl)cc2)c2c(N)ncnc21 [Inhibitor 52] | 45.7 ± 22.1 % of control
COc1ccc(S(=O)(=O)N(CCO)c2ccccc2CN(C)C/C=C/c2ccc(Cl)cc2)cc1 [Inhibitor 41] | 104.6 ± 26.6 % of control
N#CC(=C(/N)Sc1ccccc1N)/C(C#N)=C(\N)Sc1ccccc1N [Inhibitor 2] | 86.9 ± 10.3 % of control
CN(C)c1ccc(/C=C2\C(=O)Nc3ccccc32)cc1 [Inhibitor 54] | 37.5 ± 13.9 % of control
O=S(=O)(c1cccc2c(Cl)cccc12)N1CCCNCC1 [Inhibitor 43] | 71.6 ± 2.1 % of control
C/C(O)=C(\C#N)C(=O)Nc1cc(Br)ccc1Br [Inhibitor 50] | 66.8 ± 14.2 % of control
N#C/C(=C\c1ccc(O)c(O)c1)C(=O)Nc1ccccc1 [Inhibitor 7] | 56.1 ± 27.6 % of control
N#C/C(=C\c1ccc(O)c(O)c1)C(N)=O [Inhibitor 13] | 81.0 ± 13.4 % of control
CC(=O)c1c(O)c(C)c(O)c(Cc2c(O)c3c(c(C(=O)/C=C/c4ccccc4)c2O)OC(C)(C)C=C3)c1O [Inhibitor 58] | 28.1 ± 39.8 % of control
N#CC(C#N)=Cc1cc(O)c(O)c(O)c1 [Inhibitor 12] | 62.8 ± 15.8 % of control

Target: T1, LRRK2 WT
Test: In vitro kinase assay: LRRK2-mediated MBP phosphorylation
Assay type: biochemical
Details: compound 16 μM; 30° C., 15 min; normalized to absence of compound; mean ± S.E.M. of three experiments

SMILES | MBP phosphorylation Average ± SEM
CC(C)c1cc(/C=C(\C#N)C(=O)NCCCc2ccccc2)cc(C(C)C)c1O [Inhibitor 63] | 101.3 ± 25.3 % of control
Cn1cnc2c(NCc3ccccc3)nc(NCCO)nc21 [Inhibitor 46] | 125.3 ± 45.6 % of control
N#CC(C#N)=C(N)/C(C#N)=C/c1ccc2[nH]ccc2c1 [Inhibitor 27] | 79.5 ± 17.8 % of control
Oc1ccc(-c2nc(-c3ccc(F)cc3)c(-c3ccncc3)[nH]2)cc1 [Inhibitor 51] | 125.5 ± 52.6 % of control
C[C@@]12C(=O)OC(=O)[C@]1(C)[C@H]1CC[C@@H]2O1 [Inhibitor 72] | 109.7 ± 22.4 % of control
CC1(C)[C@H](C=C(Cl)Cl)[C@@H]1C(=O)O[C@H](C#N)c1cccc(Oc2ccccc2)c1 [Inhibitor 80] | 76.9 ± 13.7 % of control
N#CC(C#N)=Cc1ccc(O)cc1 [Inhibitor 83] | 118.2 ± 51.8 % of control
CC1(C)[C@H](C=C(Br)Br)[C@@H]1C(=O)O[C@H](C#N)c1cccc(Oc2ccccc2)c1 [Inhibitor 81] | 99.6 ± 23.1 % of control
Cc1cc(O)c2c(=O)c3c(O)cc(O)c4c5c(O)cc(O)c6c(=O)c7c(O)cc(C)c8c1c2c(c34)c(c78)c65 [Inhibitor 32] | 160.9 ± 12 % of control
O=c1cc(N2CCOCC2)oc2c(-c3ccccc3)cccc12 [Inhibitor 29] | 75.5 ± 3.1 % of control
OC[C@@H]1O[C@H](n2cnc3cc(Cl)c(Cl)cc32)[C@@H](O)[C@H]1O [Inhibitor 66] | 120.8 ± 78.0 % of control
Cc1ccc(NC(=O)c2cccc(N(C)C)c2)cc1NC(=O)c1ccc(O)cc1 [Inhibitor 53] | 152.6 ± 38.0 % of control
N#CC(C#N)=Cc1ccc([N+](=O)[O-])c(O)c1 [Inhibitor 26] | 114.3 ± 14.1 % of control
C[S+]([O-])c1ccc(-c2nc(-c3ccc(F)cc3)c(-c3ccncc3)[nH]2)cc1 (stereo not drawn) [Inhibitor 3] | 105.9 ± 15.9 % of control
CC(C)(C)n1nc(-c2ccc(Cl)cc2)c2c(N)ncnc21 [Inhibitor 52] | 98.1 ± 44.2 % of control
COc1ccc(S(=O)(=O)N(CCO)c2ccccc2CN(C)C/C=C/c2ccc(Cl)cc2)cc1 [Inhibitor 41] | 164.7 ± 40.0 % of control
N#CC(=C(/N)Sc1ccccc1N)/C(C#N)=C(\N)Sc1ccccc1N [Inhibitor 2] | 101.0 ± 105 % of control
CN(C)c1ccc(/C=C2\C(=O)Nc3ccccc32)cc1 [Inhibitor 54] | 112.8 ± 34.9 % of control
O=S(=O)(c1cccc2c(Cl)cccc12)N1CCCNCC1 [Inhibitor 43] | 120.2 ± 39.6 % of control
C/C(O)=C(\C#N)C(=O)Nc1cc(Br)ccc1Br [Inhibitor 50] | 138.8 ± 53.5 % of control
N#C/C(=C\c1ccc(O)c(O)c1)C(=O)Nc1ccccc1 [Inhibitor 7] | 75.6 ± 56.9 % of control
N#C/C(=C\c1ccc(O)c(O)c1)C(N)=O [Inhibitor 13] | 117.3 ± 18.5 % of control
CC(=O)c1c(O)c(C)c(O)c(Cc2c(O)c3c(c(C(=O)/C=C/c4ccccc4)c2O)OC(C)(C)C=C3)c1O [Inhibitor 58] | 147.2 ± 64.3 % of control
N#CC(C#N)=Cc1cc(O)c(O)c(O)c1 [Inhibitor 12] | 65.9 ± 31.4 % of control
